Source: patent US20080119439A1, “Treatment and prevention of intestinal fibrosis” (Bayer Schering Pharma Aktiengesellschaft, priority 2006, published 2008)

Assays:
[1] = tested on: chronic model of colon inflammation (TNBS-induced chronic colitis); assay: Study 1: chronic TNBS colitis, lipoxin A4 analog given daily together with TNBS; assay type: in vivo, BALB/c mice
Protocol: (§1) A model of chronic inflammation induced by 7 week administration of 2,4,6-trinitrobenzenesulfonic acid (TNBS) in escalating manner was used in these studies. This model results in inflammation-driven fibrosis that associates with significant increase in intestinal content of collagen.
(§2) The induction of chronic colitis was performed according the protocol proposed by Lawrance et al, Gastroenterology (2003) 125:1750-1761. Six- to eight-week-old female mice of the BALB/c strain were obtained from Charles River (Breeding Laboratories, Monza, Italy).
In a first in vivo experiment, BALB/c mice of the control group (n=7) received weekly 0.1 mL of saline solution by intracolonic injections. Mice of the TNBS group (n=15) were treated for 8 weeks with escalating doses (0.5 to 1.25 mg, with a 0.25 mg increase every two weeks) of TNBS in 30% ethanol by intracolonic injections at weekly intervals. Mice of TNBS+lipoxin A4 analog group (n=15) received the same weekly TNBS administration as the TNBS-only group plus 1 mg/kg of the lipoxin A4 analog daily by intragastric administration. Mice were examined weekly for weight loss, diarrhea and rectal bleeding. Two days after the last administration of TNBS, mice were killed and colons were removed and examined. The macroscopic appearance was analyzed considering the presence of indurations, edema, thickness and evidence of mucosal hemorrhage.
Neutrophil infiltration in the colon was monitored by measuring MPO activity using a spectrophotometric assay with trimethylbenzidine (TMB) as a substrate according to a previously published method. Activity is expressed as U per mg protein.
For histologic examination, sections of the proximal, middle and distal colon from each animal were fixed in 10% formalin, embedded in paraffin, sectioned, and stained with haematoxylin and eosin (H&E) or Sirius Red. For the latter, sections were incubated for 30 minutes in 0.1% Sirius Red F3B containing saturated picric acid and 0.1% fast green. After rising twice with distilled water, sections were briefly dehydrated with 70% ethanol.
Images from colon sections were acquired with a BX60 microscope (Olympus Co., Rome, Italy), digitalized using a SPOT-2 camera (Diagnostic Instruments Inc., Sterling Heights, Mich.) with a resolution of 1315×1033 pixels and analyzed using a computerized image analysis system (Image Acquisition System Ver.005, Delta Sistemi, Rome, Italy).
Sections from the colon of each animal were examined in a blinded fashion. The degree of the inflammation and fibrosis was scored accordingly with an established method (Lawrance et al., supra; Neurath et al., J. Exp. Med. (1995) 182:1281-1290). Briefly, inflammation was scored as absent, mild, moderate or severe depending on the density and extent of inflammatory infiltrates, loss of goblet cells, and bowel wall thickening. Also, the fibrosis was scored as absent, mild, moderate or severe on the basis of the density and extent of the Sirius red-positive connective tissue staining, compared with the water-control mice.
Quantification of the expression of mouse gene in colon tissues and intestinal fibroblasts was performed by quantitative real-time polymerase chain reaction (RT-PCR) (Heid C A 1996), using sense and antisense primers indicated in Table 1. All PCR primers were designed using PRIMER3-OUTPUT software using published sequence data from the NCBI database. Total RNA was isolated (TRIzol reagent, Invitrogen srl, Milan, Italy) from specimens taken from distal colons and intestinal fibroblasts. One microgram of purified RNA was treated with Dnasel for 15 minutes at room temperature, followed by incubation at 95° C. for 5 minutes in the presence of 2.5 mmol/L EDTA. The RNA was reverse-transcribed with Superscript III (Invitrogen srl, Milan, Italy) in 20 μL reaction volume using random primers. […]

[2] = tested on: chronic model of colon inflammation (established TNBS colitis); assay: Study 2: established TNBS colitis, lipoxin A4 analog dosed orally after the third week of TNBS; assay type: in vivo, BALB/c mice; conditions: 1 mg/kg orally, starting on week 3 after TNBS administration
Protocol: as §1, §2
To test the influence of lipoxin analogs in the inflammatory and fibrotic response in animals with established colitis, in a second in vivo study lipoxin A4 analog (1 mg/kg) was dosed orally starting after the third week of administration of TNBS (same protocol as described above). Mice were examined weekly for weight loss, diarrhea and rectal bleeding. Two days after the last administration of TNBS, mice were killed and colons were removed and examined. The macroscopic appearance was analyzed considering the presence of indurations, edema, thickness and evidence of mucosal hemorrhage.
Neutrophil infiltration in the colon was monitored by measuring MPO activity using a spectrophotometric assay with trimethylbenzidine (TMB) as a substrate according to a previously published method. Activity is expressed as U per mg protein. […]

[3] = 1 mg/kg daily intragastric, seven weeks, quantitative RT-PCR

For `O=C([O-])COC[C@H](O)[C@H](O)/C=C/C=C/C#C/C=C/[C@H](O)COc1ccc(F)cc1.[Na+]` [lipoxin A4 analog, sodium 2-((2S,3R,4E,6E,10E,12S)-13-(4-fluorophenoxy)-2,3,12-trihydroxytrideca-4,6,10-trien-8-ynyloxy)acetate], the “colon fibrosis development, morphometric analysis of Sirius red-stained colon” value ([1]; 1 mg/kg daily intragastric, administered for seven weeks, vs TNBS alone) was “significantly attenuated”, the “colon expression of TGFβ mRNA (marker of colon fibrosis)” value [1, 3] was “significantly attenuated” and the “colon expression of fibronectin mRNA (marker of colon fibrosis)” value [1, 3] was “significantly attenuated”. The “colon expression of α-SMA mRNA (marker of colon fibrosis)” value [1, 3] was “significantly attenuated”, the “colon expression of αI collagen mRNA (marker of colon fibrosis)” value [1, 3] was “significantly attenuated” and the colon inflammation ([1]; administered orally) was “attenuated”. For the same compound, the “TGBβ protein in colon” value ([1]; in comparison to mice administered TNBS alone) was “reduced” and the “efficacy when administered in a therapeutic manner (inflammatory and fibrotic response)” value [2] was “effective”.
